In BindingDB's records for doi:10.1021/jm00121a004 (Merck Sharp & Dohme Research Laboratories, 1989):

Experiments:
[1] = Displacement of [125 I] CCK-8 from Cholecystokinin type B receptor of guinea pig cerebral cortex
[2] = Displacement of 125 I-gastrin from gastrin receptor of guinea pig gastric glands
[3] = as above; remark: listed apart in the source

Row | SMILES | IC50 [1] [nM] | IC50 [2] [nM] | IC50 [3] [nM]
1 | CN1C(=O)[C@H](NC(=O)c2ccc(Cl)cc2)N=C(c2ccccc2F)c2ccccc21 | 11000 | 7600 | –
2 | CN1C(=O)C(NC(=O)Nc2ccc(Cl)cc2)N=C(c2ccccc2)c2ccccc21 [(R)-1-(4-Chloro-phenyl)-3-(1-methyl-2-oxo-5-phenyl-2,3-dihydro-1H-benzo[e][1,4]diazepin-3-yl)-urea] | 23 | 22 | –
3 | CN1C(=O)[C@@H](NC(=O)c2ccc(Cl)cc2)N=C(c2ccccc2F)c2ccccc21 | 2900 | – | 2500
4 | CCOC(=O)CN1C(=O)C(NC(=O)Nc2ccc(Cl)cc2)N=C(c2ccccc2F)c2ccccc21 (centres undefined) | – | 4.1 | –
5 | O=C(Nc1ccc(Cl)cc1)NC1N=C(c2ccccc2F)c2ccccc2NC1=O (centres undefined) | 300 | – | 640
